In patent US20150368209A1, “4-Pyrimidinylamino-benzenesulfonamide derivatives and their use for the inhibition of polo-like kinase 1 (PLK1) for the treatment of cancer and their use for the treatment of bacterial infections” (VICHEM CHEMIE KUTATÓ KFT., priority 2013, published 2015):
pIC50: −log10 of the molar value. ≈ marks a conversion by molar mass, not a printed value.

How the values were obtained:
M. tuberculosis H37Rv = experiment: Resazurin reduction microtiter assay (REMA), growth inhibition and MIC determination; type: cell-based; conditions: Mycobacterium tuberculosis, 168 h, 7 days at 37° C.; for inhibition at 20 µM: at 20 uM compound, read-out: H37Rv inh % at 20 uM; for MIC: two-fold serial dilution from 100 to 0.16 μM, read-out: H37Rv MIC90
human PLK1 kinase domain = molecular target: T1, human PLK1 kinase domain (Homo sapiens, UniProt P53350); experiment: In vitro PLK1 assay (IMAP fluorescence polarization kinase assay); type: biochemical; conditions: for pIC50: 30 nM PLK1 kinase domain, 16 μM ATP (=Kmapp), 90 min at room temperature; for inhibition at 10 µM: at 10 uM compound
T1 construct: Each reaction consisted of 30 nM enzyme PLK1 kinase domain
Method: The activity of the compounds described in the present invention was determined using a commercially available IMAP Screening Express Assay Kit (Molecular devices).
This method measures the change in the fluorescent polarization of a fluorescently-labeled peptide due to the effect of human PLK1 kinase domain on it. PLK1 kinase assays were performed in low protein binding 384-well plates (Corning 3676). Test compounds were diluted in 100% DMSO to 5 mM stock concentration, the further dilutions were made in H2O or 100% DMSO to desirable concentrations.
Each reaction consisted of 30 nM enzyme PLK1 kinase domain, 400 nM 5TAMRA-RGSFNDTLDFD-NH2 (Genecust Europe), 16 μM ATP (=Kmapp, Sigma-Aldrich) and kinase buffer: 20 mM HEPES pH 7.5 (Sigma-Aldrich), 1 mM DTT (Sigma-Aldrich), 10 mM MgCl2 (Sigma-Aldrich), 0.01% Triton X-100 (Sigma-Aldrich).
For each reaction, 4 or 6 μl containing 5TAMRA-RGSFNDTLDFD-NH2, ATP and kinase buffer were combined with 2 μl diluted compound in H2O or 0.04 μl compound in 100% DMSO. The kinase reaction was started by the addition of 2 μl diluted enzyme. The reaction was allowed to run for 90 minutes at room temperature. The reaction was stopped by adding 15 μl IMAP beads (1:1200 beads in progressive (40% buffer A, 60% buffer B) 1× buffer). After an additional 60 minutes, fluorescent polarization (Ex: 550-10 nm, Em: 590-10 nm, Dich: 561 nm) was measured using Analyst GT multimode reader (Molecular Devices).

T1 sequence (P53350 53-305 limits assumed): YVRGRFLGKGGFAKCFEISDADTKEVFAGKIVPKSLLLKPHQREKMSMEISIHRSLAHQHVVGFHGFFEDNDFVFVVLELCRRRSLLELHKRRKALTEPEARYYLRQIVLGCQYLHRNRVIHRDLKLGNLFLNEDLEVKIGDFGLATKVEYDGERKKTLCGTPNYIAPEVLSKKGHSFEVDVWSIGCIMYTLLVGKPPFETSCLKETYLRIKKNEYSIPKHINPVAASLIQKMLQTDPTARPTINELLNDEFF

Row | SMILES | inhibition at 20 µM (M. tuberculosis H37Rv) | MIC (M. tuberculosis H37Rv) | pIC50 (human PLK1 kinase domain) | inhibition at 10 µM (human PLK1 kinase domain)
1 | Cc1noc(NS(=O)(=O)c2ccc(Nc3cc(-c4ccccc4C(F)(F)F)ncn3)cc2)c1C [Example 1, N-(3,4-Dimethyl-isoxazol-5-yl)-4-[6-(2-trifluoromethyl-phenyl)-pyrimidin-4-ylamino]-benzenesulfonamide] | 101% | 2.77 µM (≈ 1.35 µg/mL) | 5.84 | 96.1%
2 | Cc1noc(NS(=O)(=O)c2ccc(Nc3cc(-c4ccccc4OC(F)(F)F)ncn3)cc2)c1C [Example 2, N-(3,4-Dimethyl-isoxazol-5-yl)-4-[6-(2-trifluoromethoxy-phenyl)-pyrimidin-4-ylamino]-benzenesulfonamide] | 102% | 9.71 µM (≈ 4.91 µg/mL) | 6.16 | 69%
3 | Cc1noc(NS(=O)(=O)c2ccc(Nc3cc(-c4cccc5c4OCO5)ncn3)cc2)c1C [Example 3, 4-(6-Benzo[1,3]dioxol-4-yl-pyrimidin-4-ylamino)-N-(3,4-dimethyl-isoxazol-5-yl)-benzenesulfonamide] | -7.2% |  |  | 48.5%
4 | Cc1noc(NS(=O)(=O)c2ccc(Nc3cc(-c4ccccc4Oc4ccccc4)ncn3)cc2)c1C [Example 4, N-(3,4-Dimethyl-isoxazol-5-yl)-4-[6-(2-phenoxy-phenyl)-pyrimidin-4-ylamino]-benzenesulfonamide] | 39% |  |  | 52.7%
5 | COc1ccc(C(C)C)cc1-c1cc(Nc2ccc(S(=O)(=O)Nc3onc(C)c3C)cc2)ncn1 [Example 5, N-(3,4-Dimethyl-isoxazol-5-yl)-4-[6-(5-isopropyl-2-methoxy-phenyl)-pyrimidin-4-ylamino]-benzenesulfonamide] | 99.2% | 16 µM (≈ 7.9 µg/mL) |  | 43.2%
6 | COc1ccc(OC)c(-c2cc(Nc3ccc(S(=O)(=O)Nc4onc(C)c4C)cc3)ncn2)c1 [Example 7, 4-[6-(2,5-Dimethoxy-phenyl)-pyrimidin-4-ylamino]-N-(3,4-dimethyl-isoxazol-5-yl)-benzenesulfonamide] | 58.2% |  | 6.72 | 59.6%
7 | CCOc1ccccc1-c1cc(Nc2ccc(S(=O)(=O)Nc3onc(C)c3C)cc2)ncn1 [Example 8, N-(3,4-Dimethyl-isoxazol-5-yl)-4-[6-(2-ethoxy-phenyl)-pyrimidin-4-ylamino]-benzenesulfonamide] | -48.4% |  | 5.90 | 82.4%
8 | CCCOc1ccccc1-c1cc(Nc2ccc(S(=O)(=O)Nc3onc(C)c3C)cc2)ncn1 [Example 10, N-(3,4-Dimethyl-isoxazol-5-yl)-4-[6-(2-propoxy-phenyl)-pyrimidin-4-ylamino]-benzenesulfonamide] | -21.2% |  | 6.03 | 104%
9 | Cc1noc(NS(=O)(=O)c2ccc(Nc3cc(-c4ccc5c(c4)OCO5)ncn3)cc2)c1C [Example 11, 4-(6-Benzo[1,3]dioxol-5-yl-pyrimidin-4-ylamino)-N-(3,4-dimethyl-isoxazol-5-yl)-benzenesulfonamide] | -21.5% |  | 6.05 | 74.4%
10 | Cc1noc(NS(=O)(=O)c2ccc(Nc3cc(-c4ccccc4OC(C)C)ncn3)cc2)c1C [Example 13, N-(3,4-Dimethyl-isoxazol-5-yl)-4-[6-(2-isopropoxy-phenyl)-pyrimidin-4-ylamino]-benzenesulfonamide] | -23% |  | 5.74 | 88.6%
11 | COc1ccc(F)c(F)c1-c1cc(Nc2ccc(S(=O)(=O)Nc3onc(C)c3C)cc2)ncn1 [Example 14, 4-[6-(2,3-Difluoro-6-methoxy-phenyl)-pyrimidin-4-ylamino]-N-(3,4-dimethyl-isoxazol-5-yl)-benzenesulfonamide] |  |  |  | 55.4%
12 | Cc1noc(NS(=O)(=O)c2ccc(Nc3cc(-c4ccc(F)cc4OC(C)C)ncn3)cc2)c1C [Example 17, N-(3,4-Dimethyl-isoxazol-5-yl)-4-[6-(4-fluoro-2-isopropoxy-phenyl)-pyrimidin-4-ylamino]-benzenesulfonamide] | -1.4% |  | 6.75 | 68.8%
13 | COc1cc(F)ccc1-c1cc(Nc2ccc(S(=O)(=O)Nc3onc(C)c3C)cc2)ncn1 [Example 18, N-(3,4-Dimethyl-isoxazol-5-yl)-4-[6-(4-fluoro-2-methoxy-phenyl)-pyrimidin-4-ylamino]-benzenesulfonamide] | -8.6% |  | 7.40 | 63.3%
14 | Cc1noc(NS(=O)(=O)c2ccc(Nc3cc(-c4ccc(F)cc4Cl)ncn3)cc2)c1C [Example 19, 4-[6-(2-Chloro-4-fluoro-phenyl)-pyrimidin-4-ylamino]-N-(3,4-dimethyl-isoxazol-5-yl)-benzenesulfonamide] | 100% | 19.4 µM (≈ 9.22 µg/mL) | 7.33 | 60.8%
15 | CCc1ccccc1-c1cc(Nc2ccc(S(=O)(=O)Nc3onc(C)c3C)cc2)ncn1 [Example 20, N-(3,4-Dimethyl-isoxazol-5-yl)-4-[6-(2-ethyl-phenyl)-pyrimidin-4-ylamino]-benzenesulfonamide] | 103% | 4.84 µM (≈ 2.18 µg/mL) | 6.02 | 73%
16 | Cc1noc(NS(=O)(=O)c2ccc(Nc3cc(-c4ccc(F)cc4F)ncn3)cc2)c1C [Example 21, 4-[6-(2,4-Difluoro-phenyl)-pyrimidin-4-ylamino]-N-(3,4-dimethyl-isoxazol-5-yl)-benzenesulfonamide] | -3.7% |  | 6.43 | 65.8%
17 | Cc1noc(NS(=O)(=O)c2ccc(Nc3cc(-c4c(F)cccc4OC(C)C)ncn3)cc2)c1C [Example 23, N-(3,4-Dimethyl-isoxazol-5-yl)-4-[6-(2-fluoro-6-isopropoxy-phenyl)-pyrimidin-4-ylamino]-benzenesulfonamide] | 102% | 10.2 µM (≈ 5.1 µg/mL) | 5.75 | 70.4%
18 | Cc1noc(NS(=O)(=O)c2ccc(Nc3cc(-c4cc(Cl)ccc4OC(C)C)ncn3)cc2)c1C [Example 24, 4-[6-(5-Chloro-2-isopropoxy-phenyl)-pyrimidin-4-ylamino]-N-(3,4-dimethyl-isoxazol-5-yl)-benzenesulfonamide] | -20.4% |  | 5.43 | 80.7%
19 | Cc1noc(NS(=O)(=O)c2ccc(Nc3cc(-c4ccc(C(F)(F)F)cc4)ncn3)cc2)c1C [Example 25, N-(3,4-Dimethyl-isoxazol-5-yl)-4-[6-(4-trifluoromethyl-phenyl)-pyrimidin-4-ylamino]-benzenesulfonamide] | -9.8% |  |  | 0%
20 | Cc1noc(NS(=O)(=O)c2ccc(Nc3cc(-c4ccccc4COc4ccc(OC(F)(F)F)cc4)ncn3)cc2)c1C [Example 30, N-(3,4-Dimethyl-isoxazol-5-yl)-4-{6-[2-(4-trifluoromethoxy-phenoxymethyl)-phenyl]-pyrimidin-4-ylamino}-benzenesulfonamide] |  |  |  | 0%
21 | COc1ccccc1-c1cc(Nc2ccc(S(=O)(=O)Nc3onc(C)c3C)cc2)ncn1 [Example 31, N-(3,4-Dimethyl-isoxazol-5-yl)-4-[6-(2-methoxy-phenyl)-pyrimidin-4-ylamino]-benzenesulfonamide] |  |  | 5.61 | 79.8%
22 | Cc1noc(NS(=O)(=O)c2ccc(Nc3cc(-c4cccc(N)c4)ncn3)cc2)c1C [Example 44, 4-[6-(3-Amino-phenyl)-pyrimidin-4-ylamino]-N-(3,4-dimethyl-isoxazol-5-yl)-benzenesulfonamide] |  |  | 4.94 | 68%
23 | Cc1noc(NS(=O)(=O)c2ccc(Nc3cc(-c4ccc(N)cc4)ncn3)cc2)c1C [Example 45, 4-[6-(4-Amino-phenyl)-pyrimidin-4-ylamino]-N-(3,4-dimethyl-isoxazol-5-yl)-benzenesulfonamide] |  |  | 5.13 | 88%
24 | Cc1noc(NS(=O)(=O)c2ccc(Nc3cc(-c4ccc(C(N)=O)cc4)ncn3)cc2)c1C [Example 46, 4-{6-[4-(3,4-Dimethyl-isoxazol-5-ylsulfamoyl)-phenylamino]-pyrimidin-4-yl}-benzamide] |  |  |  | 24%
25 | Cc1ccc(COCc2cc(C)cc(-c3cc(Nc4ccc(S(=O)(=O)Nc5onc(C)c5C)cc4)ncn3)c2)cc1 [Example 47, N-(3,4-Dimethyl-isoxazol-5-yl)-4-{6-[3-methyl-5-(4-methyl-benzyloxymethyl)-phenyl]-pyrimidin-4-ylamino}-benzenesulfonamide] |  |  |  | -4%
26 | Cc1noc(NS(=O)(=O)c2ccc(Nc3cc(-c4ccc(N(C)C)cc4)ncn3)cc2)c1C [Example 48, 4-[6-(4-Dimethylamino-phenyl)-pyrimidin-4-ylamino]-N-(3,4-dimethyl-isoxazol-5-yl)-benzenesulfonamide] |  |  | 4.85 | 87%
